Patent US20260224714A1, “CYCLING LYSOSOMAL TARGETING ANTIBODY CONJUGATES” (Lycia Therapeutics, Inc., priority 2023, published 2026)

Legend:
Assay type in all cases: cell-based
HepG2 cells = assay: Externalization of conjugates from a cell following internalization (cycling), high-throughput format (Example 11); details: 50 nM conjugate 1 hour, stringent washes, Alexa Fluor 647-labelled a-human IgG 1 hour, FACS, normalized to unconjugated parent protein, average of two replicate wells
How it was run: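 25,000 HepG2 cells incubated with conjugate for 1 h at indicated concentrations, then chilled and washed (DPBS, pH 5.2 acetate, pH 2.5 EBSS) to strip surface conjugate. Recycled conjugate captured by 1 μg/ml AF647 anti-human IgG in 37 °C EMEM for 1 h; median AF647 by flow cytometry, mean of two wells.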

recombinant IgE = assay: Degradation of super-stoichiometric levels of target in HepG2 cells (Example 13, Table 31); details: 1 nM conjugate and 25 nM IgE for three days, (A-B)/C IgE depleted relative to conjugate, average of two replicate wells
How it was run: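 HepG2 cells in EMEM/10% FBS were incubated with 1 nM conjugate plus 25 nM recombinant IgE for 72 h. IgE in medium at start and end quantified by MSD/ELISA-type assay; value is molar equivalents IgE depleted per conjugate, (initial − day-3 IgE)/conjugate concentration, mean of two wells.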

[1] = test system: Alexa Fluor647 labelled human IgE; assay: Uptake assay: internalization of Alexa Fluor 647 labelled IgE in ASGPR1/2 KO HepG2 cells (Example 6); details: equimolar conjugate and AF647 IgE, normalized to unconjugated parent protein
How it was run: (§1)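 HepG2 cells (wild type or ASGPR1/2 KO) pre-blocked with Fc receptor blocker, then exposed 2 h to conjugate precomplexed equimolar with AF647-labelled human IgE (30 min, room temperature) at 300 nM to 1.23 nM final. Median cellular AF647 by flow cytometry, normalized to unconjugated parent protein.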

[2] = test system: LysoLight-labelled human IgE; assay: Lysosomal degradation of LysoLight-labelled IgE in HepG2 cells, live cell imaging (Example 7); details: equimolar conjugate:LysoLight IgE, area under the curve of deep red fluorescence over three days, normalized to unconjugated parent protein
How it was run: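 Conjugate precomplexed 30 min at room temperature with equimolar LysoLight-labelled human IgE, added to Fc-receptor-blocked HepG2 cells at final 100–1.23 nM. Red fluorescence, released on lysosomal cathepsin cleavage, imaged hourly for 72 h starting 1 h post-addition; area under the fluorescence–time curve taken as total degradation.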

human IgE = assay: Degradation of initial and subsequent dose of target in HepG2 cells (Example 12, Table 30); details: normalized to unconjugated; for Normalized Fluorescence Post Wash Median Green: after wash, probe-conjugated IgE added for 4 hours, subsequent dose of target; for Normalized Fluorescence Precomplex Median Deep Red: precomplexed equimolar conjugate:IgE (cathepsin-cleavable quenched fluorescent probe) added for 2 hours, initial dose of target
How it was run: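 HepG2 cells exposed 2 h to conjugate precomplexed (30 min, 37 °C, equimolar) with 647-quenched-probe human IgE, acid/ice washed, then given 488-probe IgE without conjugate for 4 h. Median 647 (initial) and 488 (recycled) fluorescence by flow cytometry, normalised to unconjugated parent; mean of two wells.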

[3] = test system: Alexa Fluor647 labelled human IgE; assay: Uptake assay: internalization of Alexa Fluor 647 labelled IgE in wild type HepG2 cells (Example 6); details: equimolar conjugate and AF647 IgE, 2 hours, median cellular AF647 intensity by flow cytometry, normalized to unconjugated parent protein
How it was run: as §1

| SMILES | Normalized Fluorescence (HepG2 cells) | Average Degradation (Molar equivalents) (recombinant IgE) | Normalized Fluorescence 100 nM ASGPR KO [1] | Normalized Fluorescence 3.7 nM [2] | Normalized Fluorescence 100 nM [2] | Normalized Fluorescence Post Wash Median Green (human IgE) | Normalized Fluorescence Precomplex Median Deep Red (human IgE) | Normalized Fluorescence 3.7 nM WT [3] | Normalized Fluorescence 100 nM WT [3] |
| --- | --- | --- | --- | --- | --- | --- | --- | --- | --- |
| CC(=O)N[C@@H]1[C@@H](O)[C@@H](O)[C@@H](CO)O[C@@H]1CCCOCCOCCNC(=O)NCCOCCOCCOCCOCCOCCNC(=O)c1ccc(N2C(=O)C=CC2=O)cc1 [Compound 2319-C, N-(29-((2R,3R,4R,5R,6R)-3-acetamido-4,5-dihydroxy-6-(hydroxymethyl)tetrahydro-2H-pyran-2-yl)-19-oxo-3,6,9,12,15,23,26-heptaoxa-18,20-diazanonacosyl)-4-(2,5-dioxo-2,5-dihydro-1H-pyrrol-1-yl)benzamide] | 5.0 | 2.1 | 1.4 | 1.1 | 1.0 | 1.1 | 1.2 | 2.3 | 16.0 |
| O=C(CCOCCOCCOCCNS(=O)(=O)c1ccc(N2C(=O)C=CC2=O)cc1)NC(CCCNC(=O)NCCOCCOCCCc1cncc(N[C@H]2CO[C@H](CO)[C@H](O)[C@@H]2O)n1)(CCCNC(=O)NCCOCCOCCCc1cncc(N[C@H]2CO[C@H](CO)[C@H](O)[C@@H]2O)n1)CCCNC(=O)NCCOCCOCCCc1cncc(N[C@H]2CO[C@H](CO)[C@H](O)[C@@H]2O)n1 [Compound 2303] | 52.7 | 3.6 | 1.1 | 10.2 | 3.7 | 3.6 | 3.4 | 70.6 | 232.7 |
| O=C(CCOCCOCCOCCNS(=O)(=O)c1ccc(N2C(=O)C=CC2=O)cc1)NC(CCCNC(=O)NCCOCCOCCCc1ccnc(N[C@H]2CO[C@H](CO)[C@H](O)[C@@H]2O)n1)(CCCNC(=O)NCCOCCOCCCc1ccnc(N[C@H]2CO[C@H](CO)[C@H](O)[C@@H]2O)n1)CCCNC(=O)NCCOCCOCCCc1ccnc(N[C@H]2CO[C@H](CO)[C@H](O)[C@@H]2O)n1 [Compound 2311] | 11.6 | 0.5 | 1.1 | 2.2 | 2.2 | 1.7 | 2.0 | 22.6 | 92.9 |
| CC(=O)N[C@@H]1[C@@H](O)[C@@H](O)[C@@H](CO)O[C@@H]1c1cc(COCCOCCNC(=O)NCCCC(CCCNC(=O)NCCOCCOCc2cc([C@H]3O[C@H](CO)[C@H](O)[C@H](O)[C@H]3NC(C)=O)on2)(CCCNC(=O)NCCOCCOCc2cc([C@H]3O[C@H](CO)[C@H](O)[C@H](O)[C@H]3NC(C)=O)on2)NC(=O)CCOCCOCCOCCNS(=O)(=O)c2ccc(N3C(=O)C=CC3=O)cc2)no1 [Compound 2325] | 54.2 | 6.9 | 1.2 | 15.8 | 3.5 | 3.6 | 3.9 | 87.8 | 270.0 |
| CC(=O)N[C@@H]1[C@@H](O)[C@@H](O)[C@@H](CO)O[C@@H]1CCCOCCOCCNC(=O)NCCCC(CCCNC(=O)NCCOCCOCCC[C@H]1O[C@H](CO)[C@H](O)[C@H](O)[C@H]1NC(C)=O)(CCCNC(=O)NCCOCCOCCC[C@H]1O[C@H](CO)[C@H](O)[C@H](O)[C@H]1NC(C)=O)NC(=O)NCCOCCOCCOCCNC(=O)CBr [Compound 2321] | 49.3 | 2.4 | 1.1 | 13.2 | 4.1 | 3.7 | 4.0 | 80.7 | 320.7 |
| O=C(CCOCCOCCOCCNS(=O)(=O)c1ccc(N2C(=O)C=CC2=O)cc1)NC(CCCNC(=O)NCCOCCOCCOCc1csc(N[C@H]2CO[C@H](CO)[C@H](O)[C@@H]2O)n1)(CCCNC(=O)NCCOCCOCCOCc1csc(N[C@H]2CO[C@H](CO)[C@H](O)[C@@H]2O)n1)CCCNC(=O)NCCOCCOCCOCc1csc(N[C@H]2CO[C@H](CO)[C@H](O)[C@@H]2O)n1 [Compound 2310] | 16.6 | 4.0 | 1.1 | 4.3 | 2.4 | 2.0 | 2.3 | 30.3 | 127.9 |
| O=C(CCOCCOCCOCCNS(=O)(=O)c1ccc(N2C(=O)C=CC2=O)cc1)NC(CCCNC(=O)NCCOCCOCCOC[C@@H]1CN([C@H]2CO[C@H](CO)[C@H](O)[C@@H]2O)C(=O)O1)(CCCNC(=O)NCCOCCOCCOC[C@@H]1CN([C@H]2CO[C@H](CO)[C@H](O)[C@@H]2O)C(=O)O1)CCCNC(=O)NCCOCCOCCOC[C@@H]1CN([C@H]2CO[C@H](CO)[C@H](O)[C@@H]2O)C(=O)O1 [Compound 2306] | 23.1 | 1.8 | 1.1 | 5.6 | 1.8 | 2.4 | 2.5 | 31.0 | 164.6 |
| CC(=O)N[C@@H]1[C@@H](O)[C@@H](O)[C@@H](CO)O[C@@H]1CCCOCCOCCNC(=O)NCCCC(C)(CCCNC(=O)NCCOCCOCCC[C@H]1O[C@H](CO)[C@H](O)[C@H](O)[C@H]1NC(C)=O)NC(=O)NCCOCCOCCOCCNC(=O)CBr (stereo partly drawn) [Compound 2320] | 24.1 | 0.5 | 1.1 | 6.4 | 2.7 | 2.7 | 3.2 | 37.7 | 224.4 |
| CC(=O)N[C@H]1[C@H](OCCCCC(=O)NCCCNC(=O)CCOCC(COCCC(=O)NCCCNC(=O)CCCCO[C@@H]2O[C@H](CO)[C@H](O)[C@H](O)[C@H]2NC(C)=O)(COCCC(=O)NCCCNC(=O)CCCCO[C@@H]2O[C@H](CO)[C@H](O)[C@H](O)[C@H]2NC(C)=O)NC(=O)CCCCCCCCCCC(=O)NCCN2C(=O)C=CC2=O)O[C@H](CO)[C@H](O)[C@@H]1O [Compound 2401-C] | 3.2 | −1.0 | 1.2 | 1.1 | 1.8 | 1.2 | 1.7 | 10.3 | 44.7 |
| COC[C@H]1OC[C@H](Nc2nc(OCCOCCOCCNC(=O)NCCCC(CCCNC(=O)NCCOCCOCCOc3cc(C(F)(F)F)nc(N[C@H]4CO[C@H](COC)[C@H](O)[C@@H]4O)n3)(CCCNC(=O)NCCOCCOCCOc3cc(C(F)(F)F)nc(N[C@H]4CO[C@H](COC)[C@H](O)[C@@H]4O)n3)NC(=O)CCOCCOCCOCCNS(=O)(=O)c3ccc(N4C(=O)C=CC4=O)cc3)cc(C(F)(F)F)n2)[C@@H](O)[C@H]1O [Compound 2309] | 27.1 | 4.1 | 1.1 | 6.7 | 3.1 | 2.5 | 3.0 | 38.9 | 201.6 |
